# Laboratory results as given in patent US20230312584A1, “SALT OF NUCLEOSIDE ANALOG, AND CRYSTAL FORM, PHARMACEUTICAL COMPOSITION AND USE THEREOF” (priority 2020, published 2023).
# Experiments:
# Hygroscopicity test = format: physicochemical; settings: 25° C., RH80%, 24 hours, hydrobromide
# Description: An appropriate amount of a test product is taken and spread in a glass-stoppered weighing bottle that has been placed in an artificial climate box (temperature is 25° C.±1° C., relative humidity is 80%±2%) for 24 hours. The weighing bottle is opened, put together with the stopper in the artificial climate box (the temperature is 25° C.±1° C., the relative humidity is 80%±2%) for 24 hours, and then taken out. The moisture content of the test product before and after being placed in the artificial climate box is measured, and the hygroscopicity is measured by comparing the change in moisture content.
# [1] = format: physicochemical; settings: 7 days
# Description: The test product is placed in suitable clean containers, and then placed under conditions of high temperature (80° C.), high humidity (25° C., relative humidity 92.5%), and light (light intensity 4500±500 1× and 90 μw/cm^2), respectively, for 7 days, and samples are taken on the 7th day and tested according to the stability inspection items.
# physchem = format: physicochemical; settings: 37 °C, water, thermodynamic from solid, Solubility in water
# Description: About 10 mg of the test product is taken and put in a 1.5 mL sample tube, to which 1 mL of deionized water is added, and then the sample tube is placed in a constant temperature mixer and shaken at 37° C. for 30 minutes; after shaking, the sample tube is placed in a centrifuge to undergo centrifugation for 2 minutes. Then, 500 μL of the supernatant is taken and diluted with acetonitrile to an appropriate concentration, which is used as a test sample solution for HPLC analysis.
# An appropriate amount of sample was weighed and put in a glass test tube, to which a selected solvent was gradually added. The clarification process was observed.
# [2] = Toxicity test of a single intragastric administration to SD rats; format: in vivo; settings: both sexes, Sprague-Dawley (SD), rat, in vivo, po
# Description: (§1) The safety of the hydrobromide of Compound Z in SD rats and beagle dogs was evaluated in accordance with the “Good Laboratory Practice” (2017) issued by the National Medical Products Administration (NMPA), and the acute toxicity test and 14-day long-term toxicity test were carried out, respectively.
# (§2) Method: 40 SD rats were randomly divided into 4 groups, 10 rats in each group, half male and half female. The rats were given a single intragastric administration of a solvent of PEG400/Kolliphor® HS 15/ultrapure water (40/10/50, v/v/v) and the hydrobromide of Compound Z (200, 600 and 2000 mg/kg, based on the free base) dissolved in this solvent, respectively. After administration, observation was continued for 14 days, and dissection was performed on the 15th day as planned. During the test, clinical observations, body weight, feed consumption and anatomical and morphological observations by naked eyes were evaluated.
# SD rats [3] = assay: as above; format: in vivo; settings: SD rats, single intragastric 200, 600 and 2000 mg/kg, 14 days observation
# Description: as §1, §2
# [4] = Toxicity test of a single intragastric administration to beagle dogs; format: in vivo; settings: both sexes, beagle, dog, in vivo, po
# Description: as §1
# (§3) Method: 8 beagle dogs were randomly divided into 4 groups, 2 dogs in each group, one male and one female. The dogs were given a single intragastric administration of a solvent of PEG400/Kolliphor® HS 15/ultrapure water (40/10/50, v/v/v) and the hydrobromide of Compound Z (50, 250 and 1000 mg/kg, based on the free base) dissolved in this solvent, respectively. After administration, observation was continued for 14 days, and dissection was performed on the 15th day as planned. Clinical observations, body weight, feed consumption, clinical pathology (blood, blood coagulation, plasma biochemistry), and morphological observation by naked eyes were evaluated.
# beagle dogs [5] = assay: as above; format: in vivo; settings: beagle dogs, single intragastric 50, 250 and 1000 mg/kg
# Description: as §1, §3
# in vivo = assay: in vivo; set-up: species or system SD rats; settings: both sexes, Sprague-Dawley (SD), rat, po
# Description: as §1
# (§4) Method: 120 SD rats were randomly divided into 4 groups, 30 rats in each group, half male and half female. The rats were given an intragastric administration of a solvent of PEG400/Kolliphor® HS15/ultrapure water (40/10/50, v/v/v) and the hydrobromide (100, 300 and 600 mg/kg) of Compound Z dissolved in the solvent, respectively, once a day for 14 consecutive days; two-thirds of the animals in each group (20 animals in each group, half male and half female) were dissected after the end of the administration period (day 15); the remaining animals in each group (10 animals in each group, half male and half female) were dissected at the end of the 14-day recovery period (day 29). The following indexes were observed, measured and evaluated: clinical observations, body weight, feed consumption, ophthalmological examination, hematology, blood coagulation, plasma biochemistry and plasma electrolytes, urinalysis, anatomical and morphological observation by naked eyes, organ weight and histopathological examination, and the accompanying rat bone marrow micronucleus test.
# SD rats [6] = assay: in vivo; settings: both, Sprague-Dawley (SD), rat, 600 mg/kg, 14 days
# Description: as §1, §4
# [7] = Toxicity test of beagle dogs by intragastric administration for 14 days and drug withdrawal for 14 days; format: in vivo; settings: both sexes, dog, in vivo, po; beagle dogs, males and females, intragastric once a day for 14 consecutive days, 14 days recovery; read-out: no-observed-adverse-effect level (NOAEL)
# Description: as §1
# (§5) Test method: 40 beagle dogs were randomly divided into 4 groups, 10 dogs in each group, half male and half female. The dogs were given an intragastric administration of a solvent of PEG400/Kolliphor® HS15/ultrapure water (40/10/50, v/v/v) and the hydrobromide (30, 100 and 250 mg/kg) of Compound Z dissolved in the solvent, respectively, once a day for 14 consecutive days; three-fifths of the animals in each group (6 animals in each group, half male and half female) were dissected after the end of the administration period (day 15); the remaining animals in each group (4 animals in each group, half male and half female) were dissected at the end of the 14-day recovery period (day 29). The following indexes were observed, measured and evaluated: clinical observations, ophthalmological examination, body weight, feed consumption, body temperature, electrocardiogram (HR, PR interval, QRS interval, T wave amplitude, QT interval and QTcV interval), clinical Pathology (hematology, blood coagulation, plasma biochemistry, urine), pathological examination (morphological observation by naked eyes, organ weight, histopathological examination).
# beagle dogs [8] = assay: as above; format: in vivo
# Description: as §1, §5
# [9] = listed as Hydrobromide of Compound Z with crystal form A
smiles,measurement,setting,value
"Br.[2H]c1cc([C@]2(C#N)O[C@H](COC(=O)C(C)C)[C@@H](OC(=O)C(C)C)[C@H]2OC(=O)C(C)C)n2ncnc(N)c12 [Hydrobromide of Compound Z, (2R,3R,4R,5R)-2-(4-aminopyrrolo[2,1-f][1,2,4]triazin-7-yl-5-d)-2-cyano-5-(isobutyryloxymethyl)tetrahydrofuran-3,4-diyl bis(2-methylpropanoate) hydrobromide]",Hygroscopicity,Hygroscopicity test,None
same,increase in moisture content,Hygroscopicity test,no increase
same,Hygroscopicity,Hygroscopicity test; [9],no hygroscopicity
same,increase in moisture content,Hygroscopicity test; [9],"RH80%, with an increase in moisture content of <0.1%,"
same,Hygroscopicity,Hygroscopicity test; listed as hydrobromide of Compound Z with crystal form A,no hygroscopicity
same,Hygroscopicity,Hygroscopicity test; listed as hydrobromide of Compound Z,no hygroscopicity
same,Stability,[1],"Good stability under high temperature (80° C.), high"
same,solubility at 30 min,physchem,410 µg/mL
same,MTD at 14 days,[2],≥ 2000 mg/kg
same,early death or euthanasia,SD rats [3],no early death or euthanasia
same,MTD at 14 days,[4],≥ 1000 mg/kg
same,accidental death,beagle dogs [5],no accidental death
same,NOAEL at 14 days,in vivo,100 mg/kg
same,death,SD rats [6],two animals in the 600 mg/kg dose group died
same,NOAEL at 14 days,[7],30 mg/kg
same,adverse drug reactions,"beagle dogs [8]; beagle dogs, 250 mg/kg and 100 mg/kg intragastric once a day for 14 days","adverse drug reactions in ophthalmological examination, clinical pathology, pathological examination, and the like could be observed"
same,accidental death,"beagle dogs [8]; beagle dogs, 30, 100 and 250 mg/kg intragastric once a day for 14 days",no accidental death
same,various indexes at the end of the recovery period,"beagle dogs [8]; beagle dogs, after 14-day recovery period",returned to normal or showed a recovery trend
